# Test results taken from US20230130103A1, “TARGETED PHARMACOLOGICAL THERAPEUTICS IN UVEAL MELANOMA” (Washington University, priority 2017, published 2023).
# pEC50: −log10 of the molar value. “Also recorded” adds a separate entry of the source. Starred links: 1 amine or outer side, 2 acyl side, 3 side chain; linkers in the order of their positions; H or OH if unused. Positions of bridges follow the written chain, without caps; N, C: chain ends. Non-standard residues stand in square brackets, D forms with d. Residues, ends and D or L forms follow the SMILES beside them. *: point of attachment. Leu(3R-OH,Nα-propionyl) = CCC(=O)N[C@H](C(=O)*)[C@H](O)C(C)C; X1 = CC(C)[C@@H](O[*:3])[C@H](N[*:1])C(=O)[*:2]; X2 = CC(C)[C@H](O[*:3])[C@@H](N[*:1])C(=O)[*:2]; NMeaThr = CN[C@H](C(=O)O)[C@H](C)O; dPhLac = O=C(O)[C@H](O)Cc1ccccc1; NMeA = CN[C@@H](C)C(=O)O; NMeDha = C=C(NC)C(=O)O
# Tests used:
# [1] = target: T1, constitutively active Gα13 with the RGS domain of LARG (Homo sapiens, UniProt Q14344, Q226L); assay: Split luciferase complementation, Gα interaction with RGS domain of LARG; type: cell-based; conditions: FIG. 1C
# T1 construct: expressed in transfected cells; host or cells: HEK-293
# T1 sequence (Q14344 1-377 Q226L): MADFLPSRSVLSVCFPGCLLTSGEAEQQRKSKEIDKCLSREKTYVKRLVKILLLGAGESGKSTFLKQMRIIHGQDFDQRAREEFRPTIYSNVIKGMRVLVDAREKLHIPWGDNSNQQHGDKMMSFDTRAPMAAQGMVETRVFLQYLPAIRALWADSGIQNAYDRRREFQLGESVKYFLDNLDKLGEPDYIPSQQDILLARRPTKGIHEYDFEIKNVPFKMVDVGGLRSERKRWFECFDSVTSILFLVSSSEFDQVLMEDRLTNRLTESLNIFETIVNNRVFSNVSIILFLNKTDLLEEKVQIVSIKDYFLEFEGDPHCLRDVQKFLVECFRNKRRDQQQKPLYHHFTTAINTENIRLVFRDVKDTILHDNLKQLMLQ
# Description: (FIG. 1A-1C) depicts the effect of FR on the activity state of Gα subunits as determined by interaction with Gβγ or RGS domains in split luciferase complementation assays. FIG. 1A Effect of FR on interaction of Gβγ2 with the indicated wild type (WT) or mutant constitutively active (Q/L) forms of Gα (q) or Gα13 (13). * p<0.01; ** p<0.05. FIG. 1B Potency of FR as a driver of interaction of Gβγ2 with wild type or mutant constitutively active Gαq. FIG. 1C Potency of FR as inhibitor of interaction of RGS2 with mutant constitutively active (Q/L) Gαq, or interaction of the RGS domain of LARG (LARG-RGS) with mutant constitutively active Gα13. FIG. 1D Potency of FR as inhibitor of signal transduction by constitutively active Gαq or Gα13 detected with an SRE(L) promoter-driven transcriptional reporter. Constitutively active Gαq (Q/L), constitutively active Gαq bearing the indicated FR binding site mutations, and constitutively Gα13 (Q/L) were studied.
# To detect protein-protein interactions, a split luciferase complementation assays was used (23), as employed to study activation state-dependent interaction between Gα subunits and cognate binding partners (24).
# Split luciferase assays were performed as described (24). […]
# [2] = tested on: 92.1 cells; assay: YAP-driven transcriptional reporter; type: cell-based; conditions: Homo sapiens, FIG. 6B, read-out: EC50, increase in expression of YAP-driven transcriptional reporter
# Protocol: (§1) Expression data from two experimental replicates are mean-centered; the color gradient corresponds to difference in log 2 ratio of expression from the mean, such that 0.5 versus −0.5 is a total difference of 2-fold in unlogged expression.
# (§2) Assays of transcriptional reporters driven by YAP or Gα subunits were performed as described (42, 43). YAP- or Ga-driven firefly luciferase activity was normalized to Renilla luciferase expressed from a constitutive promoter.
# [3] = tested on: Mel202 cells; assay: YAP-driven transcriptional reporter; type: cell-based; conditions: Homo sapiens, FIG. 6B, read-out: EC50, increase in expression of YAP-driven transcriptional reporter
# Protocol: as §1, §2
# [4] = tested on: 92.1 UM cells; assay: qPCR validation of FR target genes; type: cell-based, Human; conditions: 92.1 cells; FIG. 10
# Protocol: (§3) The results for six genes showing significant changes in expression in response to FR by RNA-Seq were validated by qPCR.
# (§4) 92.1 UM cells were treated with 100 nM FR or vehicle (DMSO) in RPMI growth medium and collected after 1 and 3 d of treatment. RNA was isolated using the RNeasy Mini Kit (Qiagen) following the manufacturer's protocol and including the optional DNase I treatment step. RNA quality was assessed on a Bioanalyzer 2100 (Agilent Technologies, Santa Clara, Calif., USA). mRNA was extracted from total RNA using a Dynal mRNA Direct kit, fragmented and reverse transcribed to double stranded cDNA with random primers before addition of adapters for library preparation. Library preparation and HiSeq2500 sequencing were performed by the Washington University Genome Technology Access Center (gtac.wustl.edu). FastQ files were aligned to the transcriptome and the whole-genome with STAR. Biologic replicates were simultaneously analyzed by edgeR and Sailfish analyses of gene-level/exon-level features. Unexpressed genes and exons were removed from the analyses. Unsupervised principal component analysis and volcano plots were generated in Bioconductor using edgeR. Significance Analysis of Microarrays (SAM), Version 4.0 was used to generate a ranked gene list, and a threshold of q<10% and fold-change >2.0 was then used to select the most highly significant genes that were down regulated in FR-treated versus vehicle control cells. This list was used as signature gene sets for Gene Ontology (GO) analysis and Gene Set Enrichment Analysis (GSEA) (45). […] Significant gene sets from GSEA analyses were combined such that genes associated with multiple related signatures were only counted once and each gene was assigned only to a single combined groupbased on the signature with the highest enrichment score for that gene. Significant gene expression changes were validated in all three UM cell lines by qPCR using fast SYBR Green Mastermix (Fisher Scientific) following the manufacturers' protocol. GAPDH was used as an endogenous control.
# [5] = tested on: OCM-1A UM cells; assay: qPCR validation of FR target genes; type: cell-based, Human; conditions: OCM-1A cells; FIG. 10
# Protocol: as §3, §4
# [6] = tested on: 92.1 cells; assay: Flow cytometry of DNA content (proliferation and apoptosis); conditions: 3 d, FIG. 4C-D
# Protocol: Cells were cultured at 37.0 in 5% CO2. […] Cell lines were grown in RPMI 1640 medium (Life Technologies, Carlsbad, Calif.) supplemented with 10% FBS and antibiotics. Cell viability was measured using a water-soluble tetrazolium salt, WTS-8 (Bimake, Houston, Tex.), following the manufacturer's protocol. Flow cytometry for analysis of cell proliferation and apoptosis was performed at the Siteman Cancer Center Flow Cytometry Core on a FACScan analyzer (BD Biosciences, San Diego Calif., USA) using a standard propidium iodide staining protocol as described previously (44).
compound,measurement,setting,value
"C=C1C(=O)N[C@@H](C)C(=O)N(C)[C@@H](C)C(=O)N[C@H]([C@@H](OC(=O)[C@@H](NC(=O)CC)[C@H](O)C(C)C)C(C)C)C(=O)N(C)[C@@H]([C@H](C)OC)C(=O)O[C@H](C(C)C)[C@H](NC(C)=O)C(=O)O[C@H](Cc2ccccc2)C(=O)N1C [FR, [(1S)-1-[(3S,6R,9S,12S,18R,21S,22R)-21-acetamido-18-benzyl-3-[(1S)-1-methoxyethyl]-4,9,10,12,16-pentamethyl-15-methylidene-2,5,8,11,14,17,20-heptaoxo-22-propan-2-yl-1,19-dioxa-4,7,10,13,16-pentazacyclodocos-6-yl]-2-methylpropyl] (2S,3R)-3-hydroxy-4-methyl-2-(propanoylamino)pentanoate] (Ac-[X1][dPhLac][NMeDha]A[NMeA][X2](Leu(3R-OH,Nα-propionyl))[NMeaThr](Me); ester 1-C)",effect on interaction with the RGS domain of LARG,[1],lack of effect
same,pEC50,[2],8.52
same,pEC50,[3],9.10
same,expression of PMP22 and DCT (qPCR),[4],significantly upregulated
same,"expression of PRC2 targets ADRA2A, HAND2, SCARF2 and WT1 (qPCR)",[4],significant down-regulation
same,expression of PMP22 and DCT (qPCR),[5],no effect
same,"expression of PRC2 targets ADRA2A, HAND2, SCARF2 and WT1 (qPCR)",[5],unaffected; also recorded: no effect
same,apoptosis (sub-G1/G0 cells),[6],increased levels of sub-G1/G0 cells
same,cell cycle inhibition (decreased levels of S- and G2/M-phase cells),[6],induced cell cycle inhibition
